Data published in PubChem BioAssay (NCI).
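All cell lines were grown in 96-well plates and treated with compound for 48 hours. Definition used: TGI = concentration required for complete inhibition of growth.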

Tests used:
Experiment in all cases: growth of human tumour cells (NCI), 48 h
[1] = system: UACC-62 melanoma
[2] = system: RPMI-8226 leukemia
[3] = system: RXF 393 renal
[4] = system: IGROV1 ovarian
[5] = system: SW-620 colon
[6] = system: OVCAR-5 ovarian
[7] = system: NCI-H460 lung
[8] = system: HL-60(TB) leukemia
[9] = system: 786-0 renal
[10] = system: A549 NSCLC
[11] = system: NCI-H226 lung
[12] = system: K-562 leukemia

| Structure (SMILES) | TGI [1] [µM] | TGI [2] [µM] | TGI [3] [µM] | TGI [4] [µM] | TGI [5] [µM] | TGI [6] [µM] | TGI [7] [µM] | TGI [8] [µM] | TGI [9] [µM] | TGI [10] [µM] | TGI [11] [µM] | TGI [12] [µM] |
| --- | --- | --- | --- | --- | --- | --- | --- | --- | --- | --- | --- | --- |
| Cn1c2ccccc2c(=O)c2c(O)cc3c(c21)C=CC1(CCCC1)O3 | > 100 | > 100 | > 100 | > 100 | > 100 | > 100 | > 100 | > 100 | > 100 | > 100 | > 100 |  |
| CO[C@@](c1ccccc1)(c1nc(C#N)c(N)o1)C(F)(F)F | > 100 | > 100 | > 100 | > 100 | > 100 |  |  |  | > 100 | > 100 | > 100 | > 100 |
| O=C1Nc2ccccc2[C@]12C[C@H]2c1ccccn1 | > 100 | > 100 | > 100 | > 100 | > 100 | > 100 | > 100 |  | > 100 | > 100 | > 100 | > 100 |
| OCCSCc1cc2c(O)c(c1)Cc1cc(CSCCO)cc(c1O)Cc1cc(CSCCO)cc(c1O)Cc1cc(CSCCO)cc(c1O)C2 |  | 30.6 | 18.3 | 10.9 | 15.1 | 18.9 | 7.84 | > 100 | 12.5 | 20.4 | 37.5 | > 100 |
| NC1=CC(C(=O)c2ccncc2)c2nc3ccccc3nc21 (stereo unspecified) | > 100 | > 100 | > 100 | > 100 | > 100 | > 100 | > 100 |  | > 100 | > 100 | > 100 |  |
| CO/C(=N\N=C\c1ccc(OC)cc1OC)c1ccncc1 |  | > 10 | > 10 | > 10 | > 10 | > 10 | > 10 | > 10 | > 10 | > 10 | > 10 | > 10 |
| CC1=CC2(O)OC3(CC2=C(C)C)C(C)CCC13 (stereo unspecified) | > 100 | > 100 | > 100 | > 100 | > 100 | > 100 |  | > 100 | > 100 | > 100 | > 100 | > 100 |
| CCCCCC(=O)OCC(=O)[C@H]1[C@H](C)C[C@H]2[C@@H]3C[C@H](F)C4=C/C(=N/OC(=O)c5cccc6c(=O)c7ccccc7[nH]c56)C=C[C@]4(C)[C@H]3[C@@H](O)C[C@@]21C | 32 | 14.9 |  | > 100 | > 100 | > 100 |  | > 100 | > 100 | > 100 | > 100 | > 100 |
| Cc1nccc2c1cnc1ccnn12 |  | > 100 | > 100 | > 100 | > 100 | > 100 | > 100 | > 100 | > 100 | > 100 | > 100 | > 100 |
| CN1CC2=C(NC(=S)NC2c2ccc(Cl)cc2)/C(=C/c2ccc(Cl)cc2)C1 (stereo unspecified) | 33.8 | 92.4 |  | 32.6 | 30.3 | 31.4 | 28.1 | 48 | 52.3 | 45.1 |  | 32.7 |
| C=C(C)[C@@H]1CC[C@@H](C)[C@](O)([C@@H]2C[C@@H]([C@H](COC(=O)c3ccccc3)OC(=O)c3ccccc3)OC2=O)C1 | > 100 | > 100 | > 100 | > 100 | > 100 | > 100 | > 100 |  | > 100 | > 100 | > 100 | > 100 |
| CCCCSC1=N/C(=C\c2ccco2)C(=O)N1 | > 100 | > 100 | 64.7 | > 100 | > 100 | > 100 | > 100 | > 100 | > 100 | > 100 | > 100 |  |
| C=CCNC(=O)/C(Cc1cc(Br)c(OC)c(Br)c1O)=N\O | 34.8 | > 100 |  | 47.8 | 26.4 | 34.4 | 15.9 | 5.43 | 7.28 | 53.4 | 23.4 | > 100 |
| O=C(O)c1cc(-c2ccccc2O)nc2ccccc12 | > 100 | > 100 |  | > 100 | > 100 | > 100 | > 100 |  | > 100 | > 100 |  | > 100 |
| CN(C)c1ccc(/C=C2\N=C(N/N=C/c3ccccc3)NC2=O)cc1 | > 100 | > 100 | 70.4 | > 100 | > 100 | > 100 | > 100 | > 100 | > 100 | > 100 | > 100 |  |
| COc1ccc(C2CC(=O)Oc3ccccc3O2)cc1 (stereo unspecified) | > 100 | > 100 | > 100 | > 100 | > 100 |  | > 100 | > 100 | > 100 | > 100 | > 100 | > 100 |
| CCOc1ccc(N/C(=C(/C(Cl)=C(/Cl)NCCO)[N+](=O)[O-])n2nnc3ccccc32)cc1 | 56.7 | > 100 | 31.7 |  | 39.9 | > 100 | > 100 |  | 81.7 | > 100 | > 100 | > 100 |
| CCOC(=O)c1nc2ccc(Cl)cc2c2c1CCO2 | > 100 |  | > 100 | > 100 | > 100 | > 100 | > 100 | > 100 | > 100 | > 100 | > 100 | > 100 |
| Cc1cc(S(=O)(=O)Nc2nc(N)nc(N3CCOCC3)n2)c(SCC(=O)O)cc1Cl |  | > 10 | > 10 | > 10 | > 10 | > 10 | > 10 | > 10 | > 10 | > 10 | > 10 | > 10 |
| Nc1nc(N)nc(-c2cnccn2)n1 | > 100 |  | > 100 | > 100 | > 100 | > 100 | > 100 |  | > 100 | > 100 | > 100 | > 100 |
